We go through two compounds from US20080200439A1, “Methods and compositions for modulating BK channel activity and vasodilation” (University of Tennessee Research Foundation, priority 2006, published 2008).

The target of the assay is T1, cbv1+β4 channels (Rattus norvegicus, UniProt Q62976).
T1 construct: Full-length cDNA coding for cbv1-subunits was cloned from rat cerebral artery myocytes by PCR; expressed in transfected cells; host or cells: Xenopus laevis oocytes (cRNA co-injection)
In words: Patch-clamp of cbv1+β4 channels expressed in Xenopus oocytes. It counts as cell-based. From the text: cRNA Preparation and Injection into Xenopus Oocytes. Full-length cDNA coding for cbv1-subunits was cloned from rat cerebral artery myocytes by PCR and ligated to the PCR-XL-TOPO cloning vector (Invitrogen Corp., Carlsbad, Calif., United States of America) (Jaggar et al., 2005). cDNA coding for cbv1-subunits was cleaved from the cloning vector by BamHI (Invitrogen Corp., Carlsbad, Calif., United States of America) and XhoI (Promega, Madison, Wis., United States of America) and directly inserted into the pOX vector for expression in Xenopus oocytes. pOX-cbv1 was linearized with NotI (Promega, Madison, Wis., United States of America) and transcribed in vitro using T3 polymerase. […]
Electrophysiology. […] Single-channel and macroscopic currents were recorded from inside-out (I/O) or outside-out (O/O) patches. […] Nominal free Ca^2+ was calculated with MaxChelator Sliders (C. Patton, Stanford University, California, United States of America) and validated experimentally using Ca^2+-selective electrodes (Corning Incorporated Science Products Division, Corning, N.Y., United States of America). […]
Currents were recorded using an EPC8 amplifier (HEKA Electronics, Lambrecht/Pfalz, Germany) at 1 kHz using a low-pass, eight-pole Bessel filter 902LPF (Frequency Devices, Haverhill, Mass., United States of America). […]
(In general: Patch clamp records ionic current or voltage across a cell membrane.)

T1 sequence (Q62976 1-1148 isoform Q62976-2): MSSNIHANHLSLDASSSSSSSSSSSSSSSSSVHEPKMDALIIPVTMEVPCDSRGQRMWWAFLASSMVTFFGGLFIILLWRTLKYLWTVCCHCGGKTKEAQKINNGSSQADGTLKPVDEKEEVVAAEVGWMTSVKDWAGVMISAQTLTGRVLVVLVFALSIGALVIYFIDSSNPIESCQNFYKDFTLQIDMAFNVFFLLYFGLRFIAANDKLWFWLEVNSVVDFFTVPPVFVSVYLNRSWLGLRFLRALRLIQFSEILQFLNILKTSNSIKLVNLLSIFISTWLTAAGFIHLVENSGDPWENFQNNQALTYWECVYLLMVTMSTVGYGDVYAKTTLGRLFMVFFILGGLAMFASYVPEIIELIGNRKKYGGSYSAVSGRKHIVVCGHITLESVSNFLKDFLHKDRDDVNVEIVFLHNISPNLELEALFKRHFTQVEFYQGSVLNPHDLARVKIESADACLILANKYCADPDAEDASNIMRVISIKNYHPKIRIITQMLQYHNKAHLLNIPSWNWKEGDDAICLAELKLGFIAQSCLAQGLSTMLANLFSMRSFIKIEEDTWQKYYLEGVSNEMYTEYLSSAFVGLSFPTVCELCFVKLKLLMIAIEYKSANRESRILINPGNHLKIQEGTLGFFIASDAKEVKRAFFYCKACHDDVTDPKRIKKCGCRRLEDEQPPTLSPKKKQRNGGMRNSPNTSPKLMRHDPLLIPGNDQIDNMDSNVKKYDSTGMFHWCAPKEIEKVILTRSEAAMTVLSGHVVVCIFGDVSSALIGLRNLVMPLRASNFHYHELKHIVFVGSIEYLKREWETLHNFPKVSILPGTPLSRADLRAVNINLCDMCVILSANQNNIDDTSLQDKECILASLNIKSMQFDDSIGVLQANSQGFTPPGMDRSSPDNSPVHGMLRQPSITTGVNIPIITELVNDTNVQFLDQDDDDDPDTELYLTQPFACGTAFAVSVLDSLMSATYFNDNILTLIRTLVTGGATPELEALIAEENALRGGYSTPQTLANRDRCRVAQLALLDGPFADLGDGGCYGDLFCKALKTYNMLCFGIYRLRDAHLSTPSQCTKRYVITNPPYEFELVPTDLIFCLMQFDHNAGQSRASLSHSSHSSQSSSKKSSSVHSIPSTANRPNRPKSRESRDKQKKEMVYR
T1 sequence (Q86W47 whole entry partner): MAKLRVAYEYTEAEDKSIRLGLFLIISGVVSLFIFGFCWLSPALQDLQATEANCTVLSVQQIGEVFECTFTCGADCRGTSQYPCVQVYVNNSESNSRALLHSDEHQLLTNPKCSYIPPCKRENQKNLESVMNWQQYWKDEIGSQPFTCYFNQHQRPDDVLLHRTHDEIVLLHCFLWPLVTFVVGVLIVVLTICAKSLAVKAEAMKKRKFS

In the case of `C[C@H](CCC(=O)O)[C@H]1CC[C@H]2[C@@H]3CC[C@@H]4C[C@H](O)CC[C@]4(C)[C@H]3CC[C@]12C` [LC, 5β-cholanic acid 3α-ol], for the setting “150 μM, I/O patches, conditions identical to cbv1 and cbv1+β1, read-out: NPo (% of control)”, the remaining activity at 150 µM came to 109 ± 11%. With “iberiotoxin (QFTDVDCSVSKECWSVCKDLFGVDRGKCMGKKCRCYQ; UniProt P24663 1-37, looked up) [Ibtx, reference compound]”, the “Block of channel NPo” value (55 nM, protracted exposure) is reported as “resistance to block”.
